Columns and labels:
[1] = tested on: subjects with hypertension; assay: Double-blinded, randomized, placebo-controlled trial in subjects with hypertension (Example 2; AOBP week 4, serum K+); format: in vivo, human
Experimental: A double-blinded, randomized, placebo-controlled trial on the safety and efficacy of Compound A HBr was conducted on subjects with hypertension.
Hypertensive subjects were randomly assigned to one of the following six experimental groups: • (a) Placebo group: Oral administration of a placebo tablet matched for size, color, and shape of study drug once in the morning each day; • (b) 12.5 mg BID: Oral administration of one tablet containing 12.5 mg of Compound A HBr once in the morning and evening, 12 hours apart each day; • (c) 25 mg BID: Oral administration of one tablet containing 25 mg of Compound A HBr once in the morning and evening, 12 hours apart each day; • (d) 12.5 mg QD: Oral administration of one tablet containing 12.5 mg of Compound A HBr once in the morning each day; • (e) 50 mg QD: Oral administration of two tablets containing 25 mg of Compound A HBr once in the morning each day; and • (f) 100 mg QD: Oral administration of one tablet containing 100 mg of Compound A HBr once in the morning each day.
Subjects in the study met the following inclusion criteria: • (a) Male and nonpregnant, nonlactating female subjects ≥18 years of age; • (b) Written informed consent Health Insurance Portability and Accountability Act authorization, and local patient privacy required documentation for this study have been obtained; • (c) Automated office blood pressure (AOBP) with SBP ≥130 mm Hg; • (d) Background antihypertensive treatment of ≥2 drugs; • (e) PRA ≤1.0 ng/mL; • (f) Serum aldosterone ≥1 ng/dL; and • (g) Morning serum cortisol in normal range. If baseline serum cortisol <18 mcg/dL, then baseline Cortrosyn stimulation test administered at baseline.
Prospective subjects were also excluded based on the following exclusion criteria: • (a) Concomitant use of epithelial sodium channel inhibitors or mineralocorticoid receptor antagonists; • (b) Subjects with hypokalemia; • (c) Subjects with hyperkalemia; • (d) Subjects with serum cortisol <3 mcg/dL; • (e) Subjects with serum sodium <135 mEq/L; • (f) Subjects with estimated glomerular filtration rate <60 mL/min/1.73 m2; • (g) Subjects with type 1 or uncontrolled (hemoglobin A1c ≥9%) type 2 diabetes mellitus; • (h) Subjects with body mass index >40 kg/m2; • (i) Subjects with unstable angina; • (j) Subjects with SBP ≥175 mm Hg or DBP ≥100 mm Hg; • (k) Subjects with a decrease in SBP ≥20 mm Hg or DBP ≥10 mm Hg from sitting to standing position; • (l) Subjects who, in the opinion of the investigator, have suspected nonadherence to antihypertensive treatment; • (m) Subjects who, in the opinion of the investigator, have any major medical illness or symptoms; • (n) Subjects who, in the opinion of the investigator, have any acute or chronic medical or psychiatric condition; • (o) Subjects undergoing treatment with any of the following medications: • (i) Topical corticoids; • (ii) Sympathomimetic decongestants; • (iii) Theophylline; • (iv) Phosphodiesterase type 5 inhibitors; • (v) NSAIDs; • (vi) Intramuscular steroids; • (vii) Estrogen; • (viii) Cytochromes; • (ix) Strong CYP3A and CYP3A4 inducers; • (p) Subjects with known hypersensitivity to Compound A HBr or any of the excipients; and • (q) Subjects who are night-shift workers.

[2] = Phase 1 parts 3 and 4: sex- and age-related effects on PK; format: in vivo, human; conditions: single 100-mg dose; not statistically significant
Experimental: Part 3 of the study evaluated the sex-related effects on the safety, tolerability, and PK of Compound A HBr. In 1 cohort of 8 healthy Caucasian women aged 20 to 35 years (inclusive), 6 participants were randomized to receive a single 100-mg dose of Compound A HBr and 2 participants were randomized to receive matching placebo. Compound A HBr or placebo was administered in the fasted state. The results were compared with those in the cohort at the same dose as in Part 1.
Part 4 of the study evaluated the age-related effects on safety, tolerability, and PK of Compound A HBr. In 1 cohort of 8 healthy Caucasian men aged 68 to 80 years, 6 participants were randomized to receive a single 100-mg dose of Compound A HBr and 2 participants were randomized to receive matching placebo. Compound A HBr or placebo were administered in the fasted state. The results were compared with those in the cohort at the same dose as in Part 1.
A linear model was used to analyze log-transformed AUC and Cmax with sex or age as fixed effects. Difference in least square means (LSM) and corresponding 90% CI were back-transformed to obtain the estimates of geometric mean ratios and their CI for females vs. males and ≥65 years vs. <65 years participants.

human CYP11B2 (hCYP11B2) = target: T1, human CYP11B2 (hCYP11B2) (Homo sapiens, UniProt P19099); assay: Assay of hCYP11B2 inhibition (11-DOC to aldosterone); format: biochemical; conditions: mitochondrial fraction of V79 cells stably expressing hCYP11B2; substrate 11-DOC; read-out: Inhibition constant (Ki) hCYP11B2
T1 construct: expressed in transfected cells; host or cells: V79 cells (mitochondrial fraction)
T1 sequence (P19099 25-503): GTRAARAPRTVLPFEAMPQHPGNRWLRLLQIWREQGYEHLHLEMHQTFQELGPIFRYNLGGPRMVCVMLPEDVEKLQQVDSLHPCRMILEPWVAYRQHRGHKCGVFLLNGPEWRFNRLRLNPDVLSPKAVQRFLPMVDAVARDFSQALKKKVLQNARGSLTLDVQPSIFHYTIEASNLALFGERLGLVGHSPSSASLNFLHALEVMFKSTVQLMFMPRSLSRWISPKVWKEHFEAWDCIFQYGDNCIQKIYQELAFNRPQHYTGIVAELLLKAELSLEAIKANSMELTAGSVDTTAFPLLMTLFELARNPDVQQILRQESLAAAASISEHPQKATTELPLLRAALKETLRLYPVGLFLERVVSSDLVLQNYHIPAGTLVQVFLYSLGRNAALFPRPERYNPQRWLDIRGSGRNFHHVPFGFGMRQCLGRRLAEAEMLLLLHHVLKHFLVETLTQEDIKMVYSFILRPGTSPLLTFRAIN
Experimental: The inhibitory effects of Compound A on human CYP 11B1 (hCYP11B1) and human CYP11B2 (hCYP11B2) enzyme activity were evaluated by determining the enzymatic conversion rates of 11-deoxycortisol to cortisol for hCYP11B1 and 11-DOC to aldosterone for hCYP11B2.

[3] = tested on: human adrenocortical NCI-H295R cell culture; assay: Inhibitory effects on adrenal steroidogenesis; format: cell-based; conditions: 3 days of incubation
Experimental: Multiple concentrations of Compound A and aminoglutethimide (positive control) were evaluated in a human adrenocortical NCI-H295R cell culture. The effect of Compound A on adrenal steroidogenesis was determined by measurement of 12 steroid hormones in the culture medium after 3 days of incubation. The following steroids were measured: pregnenolone, 11-deoxycortisol, 17α-hydroxypregnenolone, 11-DOC, dehydroepiandrosterone, corticosterone, progesterone, cortisol, 17α-hydroxyprogesterone, aldosterone, androstenedione, and testosterone.

Compound: CC(=O)N[C@H]1CC[C@H](NC(=O)CN2CCN(c3nncc(-c4ccc(C)cc4)n3)CC2)CC1 [Compound A HBr]
- Reduction in systolic blood pressure from baseline at week 4, dose cohort vs placebo, Mean (SEM) ([1]; 12.5 mg BID): 1.2 (5.2)
- Systolic BP by AOBP, Change (Wk 4 v. BL), Mean ([1]; 12.5 mg BID, N 10): −5.3 mmHg
- Systolic BP by AOBP, Change (Wk 4 v. BL), Median ([1]; 12.5 mg BID, N 10): −4.5 mmHg
- Systolic BP by AOBP, Week 4, Mean ([1]; 12.5 mg BID, N 10): 138 mmHg
- Systolic BP by AOBP, Week 4, Median ([1]; 12.5 mg BID, N 10): 133 mmHg
- Reduction in systolic blood pressure from baseline at week 4, dose cohort vs placebo, Mean (SEM) ([1]; 12.5 mg QD): 3.85 (6.1)
- Systolic BP by AOBP, Change (Wk 4 v. BL), Mean ([1]; 12.5 mg QD, N 10): −7.9 mmHg
- Systolic BP by AOBP, Change (Wk 4 v. BL), Median ([1]; 12.5 mg QD, N 10): −2.25 mmHg
- Systolic BP by AOBP, Week 4, Mean ([1]; 12.5 mg QD, N 10): 138.9 mmHg
- Systolic BP by AOBP, Week 4, Median ([1]; 12.5 mg QD, N 10): 139 mmHg
- Reduction in systolic blood pressure from baseline at week 4, dose cohort vs placebo, Mean (SEM) ([1]; 25 mg BID): 11.5 (5.1)
- Systolic BP by AOBP, Change (Wk 4 v. BL), Mean ([1]; 25 mg BID, N 11): −15.5 mmHg
- Systolic BP by AOBP, Change (Wk 4 v. BL), Median ([1]; 25 mg BID, N 11): −20.0 mmHg
- Systolic BP by AOBP, Week 4, Mean ([1]; 25 mg BID, N 11): 132.1 mmHg
- Systolic BP by AOBP, Week 4, Median ([1]; 25 mg BID, N 11): 132 mmHg
- Reduction in systolic blood pressure from baseline at week 4, dose cohort vs placebo, Mean (SEM) ([1]; 50 mg QD): 6.3 (4.9)
- Systolic BP by AOBP, Change (Wk 4 v. BL), Mean ([1]; 50 mg QD, N 12): −10.3 mmHg
- Systolic BP by AOBP, Change (Wk 4 v. BL), Median ([1]; 50 mg QD, N 12): −8.75 mmHg
- Systolic BP by AOBP, Week 4, Mean ([1]; 50 mg QD, N 12): 132.1 mmHg
- Systolic BP by AOBP, Week 4, Median ([1]; 50 mg QD, N 12): 133 mmHg
- Reduction in systolic blood pressure from baseline at week 4, dose cohort vs placebo, Mean (SEM) ([1]; 100 mg QD): 15 (5.4)
- median increase in serum potassium (K+) ([1]; 100 mg QD cohort): 0.2 mmol/L
- subjects with dose held or dose reduction related to elevated K+ ([1]; 100 mg QD cohort): No subjects
- Systolic BP by AOBP, Change (Wk 4 v. BL), Mean ([1]; 100 mg QD, N 10): −19.0 mmHg
- Systolic BP by AOBP, Change (Wk 4 v. BL), Median ([1]; 100 mg QD, N 10): −20.25 mmHg
- Systolic BP by AOBP, Week 4, Mean ([1]; 100 mg QD, N 10): 126.1 mmHg
- Systolic BP by AOBP, Week 4, Median ([1]; 100 mg QD, N 10): 124 mmHg
- AUC higher in female than in male participants [2]: 19%
- AUC lower in men aged ≥65 years vs <65 years [2]: ~12%
- Cmax higher in female than in male participants [2]: 25%
- Cmax lower in men aged ≥65 years vs <65 years [2]: approximately 14%

Compound: CC(=O)N[C@H]1CC[C@H](NC(=O)CN2CCN(c3nncc(-c4ccc(C)cc4)n3)CC2)CC1 [Compound A]
- Ki (human CYP11B2 (hCYP11B2)): 1.27 nM
- reduction in aldosterone secretion ([3]; concentrations ≥0.11 μmol/L): > 50%
- reduction in corticosterone ([3]; concentrations ≥1 μmol/L): > 50%
- reductions in pregnenolone, progesterone, 17α-hydroxyprogesterone, 11-DOC, corticosterone, and cortisol ([3]; top concentration 3 μmol/L): < 50%
